According to patent US6620828B2, “Thiazole compounds and pharmaceutical compositions for inhibiting protein kinases and methods for their use” (Agouron Pharmaceuticals, Inc., priority 1999, dated 2003):

How the values were obtained:
[1] = target: T1, FGF-R1 (Homo sapiens, UniProt P11362, C488A/C584S/L457V); test: FGF-R spectrophotometric assay; assay type: biochemical; conditions: for inhibition at 1 µM: Table 3, % inh @ 1 uM, read-out: FGF-P Ki (nM) (% inh @ 1 uM)
T1 construct: starting from the endogenous methionine residue 456 to glutamate 766; made in house; host or cells: baculovirus vector expression system
T1 sequence (P11362 456-766 L457V/C488A/C584S): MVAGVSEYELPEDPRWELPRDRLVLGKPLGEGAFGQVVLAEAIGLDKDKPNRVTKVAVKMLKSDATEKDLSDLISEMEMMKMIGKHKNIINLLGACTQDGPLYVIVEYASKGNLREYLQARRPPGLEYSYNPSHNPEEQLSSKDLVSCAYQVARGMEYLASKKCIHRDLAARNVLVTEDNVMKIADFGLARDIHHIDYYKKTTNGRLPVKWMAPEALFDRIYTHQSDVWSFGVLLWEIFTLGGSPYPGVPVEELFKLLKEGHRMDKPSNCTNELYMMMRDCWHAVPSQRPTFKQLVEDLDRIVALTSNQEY
Description: FGF-R1 Construct for Assay: The intracellular kinase domain of human FGF-R1 was expressed using the baculovirus vector expression system starting from the endogenous methionine residue 456 to glutamate 766, according to the residue numbering system of Mohammadi et al., Mol. Cell. Biol., 16, 977-989 (1996). In addition, the construct also has the following 3 amino acid substitutions: L457V, C488A, and C584S.
The spectrophotometric assay was carried out as described above for VEGF-R2, except for the following changes in concentration: FGF-R=50 nM, ATP=2 mM, and poly(E4Y1)=15 mM.

[2] = system: human umbilical vein endothelial cells (HUVEC); test: HUVEC proliferation assay; assay type: cell-based; conditions: Homo sapiens, HUVEC, Table 3
How it was run: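 Readout was MTT dye reduction (A595) after 72 h of stimulation with VEGF at 6 ng/ml final. Compound, in 0.1% DMSO final, was added 1 h before VEGF to HUVEC starved 24 h in 1% FBS. % inhibition was scaled between VEGF-alone and unstimulated wells; IC50 was fitted from triplicate dose curves.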

[3] = system: lung cancer cells (line MV522); test: Cancer cell proliferation (MV522) assay; assay type: cell-based; conditions: MV522, Table 3
[4] = target: T2, unphosphorylated VEGF-R2Δ50 (FLVK) (Homo sapiens, UniProt P35968, DEL940-989/E990V); test: VEGF-R2 coupled spectrophotometric assay, unphosphorylated enzyme (FLVK); assay type: biochemical; conditions: Table 3; some entries 'Slow binder'
T2 construct: VEGF-R2Δ50 contains residues 806-939 and 990-1171; made in house; host or cells: baculovirus/insect cells
T2 sequence (P35968 with tags, fused parts or gaps DEL940-989/E990V limits assumed): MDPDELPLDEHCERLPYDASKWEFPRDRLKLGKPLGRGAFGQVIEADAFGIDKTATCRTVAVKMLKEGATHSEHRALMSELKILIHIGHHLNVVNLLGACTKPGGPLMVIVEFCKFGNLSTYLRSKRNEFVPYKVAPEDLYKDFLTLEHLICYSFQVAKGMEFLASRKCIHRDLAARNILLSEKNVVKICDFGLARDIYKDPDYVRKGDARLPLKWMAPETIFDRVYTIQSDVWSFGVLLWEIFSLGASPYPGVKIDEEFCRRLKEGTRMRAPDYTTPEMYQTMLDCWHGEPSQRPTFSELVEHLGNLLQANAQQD
How it was run: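 Unphosphorylated VEGF-R2Δ50 (5 to 40 nM) with 20 mM poly(E4Y1), 3 mM ATP, 60 mM MgCl2, 2 mM MnCl2 in 200 mM Hepes pH 7.5. ADP production coupled via PK/LDH to NADH oxidation, read at 340 nm. Ki from activity at varying compound concentrations.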

[5] = target: T3, LCK tyrosine kinase (Homo sapiens, UniProt P06239, C224D/P223M); test: LCK spectrophotometric assay; assay type: biochemical; conditions: Table 3, read-out: LCK (% inh @ 1 uM)
T3 construct: starting from amino acid residue 223 to the end of the protein at residue 509; made in house; host or cells: insect cells
T3 sequence (P06239 223-509 P223M/C224D): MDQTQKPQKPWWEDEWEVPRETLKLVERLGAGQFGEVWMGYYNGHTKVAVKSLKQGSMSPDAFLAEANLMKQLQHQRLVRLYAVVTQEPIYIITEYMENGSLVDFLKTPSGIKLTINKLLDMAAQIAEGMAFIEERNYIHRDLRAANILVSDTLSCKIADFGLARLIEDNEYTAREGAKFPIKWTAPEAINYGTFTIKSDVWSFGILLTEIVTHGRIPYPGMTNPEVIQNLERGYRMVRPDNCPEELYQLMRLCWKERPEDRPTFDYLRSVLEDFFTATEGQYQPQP

[6] = target: T4, phosphorylated VEGF-R2Δ50 (FLVK-P) (Homo sapiens, UniProt P35968, DEL940-989/E990V); test: VEGF-R2 coupled spectrophotometric (FLVK-P) assay; assay type: biochemical
T4 construct: VEGF-R2Δ50 contains residues 806-939 and 990-1171; made in house; host or cells: baculovirus/insect cells
T4 sequence (P35968 with tags, fused parts or gaps DEL940-989/E990V limits assumed): as the sequence (P35968 with tags, fused parts or gaps DEL940-989/E990V limits assumed) above
How it was run: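 Baculovirus-expressed human VEGF-R2Δ50 (residues 806-939/990-1171, E990V) was autophosphorylated with 3 mM ATP, 40 mM MgCl2 for 2 h at 4° C. ADP formation was coupled via PK/LDH to NADH oxidation, read at 340 nm, with 5.1 mM poly(E4Y1), 1 mM ATP, 25 mM MgCl2, Hepes pH 7.5. Ki came from activity across compound concentrations.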

[7] = target: T5, CHK1 (Homo sapiens, UniProt O14757); test: CHK1 high-throughput screening; assay type: biochemical; conditions: read-out: % inhibition @ 20 μM, Table 4, repeated entries per example
T5 sequence (O14757 1-476): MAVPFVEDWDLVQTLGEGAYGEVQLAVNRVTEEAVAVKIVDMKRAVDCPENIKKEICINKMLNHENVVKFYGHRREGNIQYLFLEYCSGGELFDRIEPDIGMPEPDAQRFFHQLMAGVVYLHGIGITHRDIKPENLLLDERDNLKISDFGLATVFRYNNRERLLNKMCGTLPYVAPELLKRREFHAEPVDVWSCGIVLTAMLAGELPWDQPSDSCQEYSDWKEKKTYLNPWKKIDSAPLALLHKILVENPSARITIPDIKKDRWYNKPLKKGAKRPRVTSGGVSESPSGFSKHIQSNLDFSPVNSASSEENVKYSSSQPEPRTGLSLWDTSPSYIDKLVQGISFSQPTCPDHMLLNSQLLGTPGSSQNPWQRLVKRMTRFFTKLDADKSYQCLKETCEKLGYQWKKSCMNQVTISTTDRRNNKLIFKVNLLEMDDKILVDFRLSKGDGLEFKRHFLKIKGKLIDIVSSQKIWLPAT

Molecule `COc1cc(Nc2nc(N)c(-c3nc(-c4cccc(NC(=O)c5cc(C)c(O)c(C)c5)c4)cs3)s2)cc(OC)c1OC` [D(58), N-{3-[4′-Amino-2′-(3,4,5-trimethoxy-phenylamino)-[2,5′]bithiazolyl-4-yl]-phenyl}-4-hydroxy-3,5-dimethyl-benzamide] has an inhibition at 1 µM [1] of 23%, an IC50 [2] greater than 100 nM and an IC50 [3] greater than 10 µM. The Ki [4] was 1.4 nM and the inhibition at 1 µM [5] was 29%.
Molecule `COc1cc(Nc2nc(N)c(-c3nc(-c4cc(NC(=O)c5cccc(Cl)c5)c(F)cc4Cl)no3)s2)cc(OC)c1OC` [D(69), N-(5-{5-[4-Amino-2-(3,4,5-trimethoxy-phenylamino)-thiazol-5-yl]-[1,2,4]oxadiazol-3-yl}-4-chloro-2-fluoro-phenyl)-3-chloro-benzamide] has an inhibition at 1 µM [1] of 78%, an IC50 [2] of 15 nM and an IC50 [3] of 2.3 µM. The Ki [4] was 0.5 nM and the inhibition at 1 µM [5] was 79%.
In the case of `CNC(=O)Nc1nc(N)c(-c2nc(-c3cc(NC(=O)c4cccc(OC)c4)c(F)cc3F)no2)s1` [O(4), N-(5-{5-[4-Amino-2-(3-methyl-ureido)-thiazol-5-yl]-[1,2,4]oxadiazol-3-yl}-2,4-difluoro-phenyl)-3-methoxy-benzamide], the inhibition at 1 µM [1] is reported as 9%, the IC50 [2] is reported as 0.64 nM and the Ki [4] is reported as 0.19 nM. It also gave an inhibition at 0.05 µM ([6]; Table 3, at 50 nM) of 87% and an inhibition at 1 µM [5] of 3%.
`CNC(=O)Nc1nc(N)c(-c2nc(-c3cccc(NC(=O)c4cccc(OC)c4)c3)cs2)s1` [F(11), N-{3-[4′-Amino-2′-(3-methyl-ureido)-[2,5′]bithiazolyl-4-yl]-phenyl}-3-methoxy-benzamide] gave an inhibition at 1 µM [1] of 25%, an IC50 [2] of 12 nM and an IC50 [3] of 9.6 µM. It also gave a Ki [4] of 0.26 nM and an inhibition at 1 µM [5] of 15%.
For `COCC(C)NC(=O)Nc1nc(N)c(-c2nc(-c3cc(NC(=O)c4cccc(OC)c4)c(F)cc3F)cs2)s1` (centres unmarked) [O(14), N-(5-{4′-Amino-2′-[3-(2-methoxy-1-methyl-ethyl)-ureido]-[2,5′]bithiazolyl-4-yl}-2,4-difluoro-phenyl)-3-methoxy-benzamide], the inhibition at 1 µM [1] was 10%, the IC50 [2] was 16 nM and the inhibition at 1 µM [5] was 0%.
Molecule `COc1cc(Nc2nc(N)c(-c3nc(-c4cccc(NC(=O)CC5CC6CCC5C6)c4)cs3)s2)cc(OC)c1OC` (centres unmarked) [D(59), N-{3-[4′-Amino-2′-(3,4,5-trimethoxy-phenylamino)-[2,5′]bithiazolyl-4-yl]-phenyl}-2-bicyclo[2.2.1]hept-2-yl-acetamide] has an inhibition at 1 µM [1] of 54%, an IC50 [2] greater than 100 nM and an IC50 [3] of 3.1 µM. It also gave a Ki [4] of 2.8 nM and an inhibition at 1 µM [5] of 44%.
`COc1cccc(C(=O)Nc2cc(-c3noc(-c4sc(Nc5cc(OC)c(OC)c(OC)c5)nc4N)n3)c(F)cc2F)c1` [D(67), N-(5-{5-[4-Amino-2-(3,4,5-trimethoxy-pheny-1-amino)-thiazol-5-yl]-[1,2,4]oxadiazol-3-yl}-2,4-difluoro-phenyl)-3-methoxy-benzamide] showed an inhibition at 1 µM [1] of 13%, an IC50 [2] of 4.1 nM and an IC50 [3] greater than 10 µM. It also gave an inhibition at 1 µM [5] of 1%.
`COc1cc(Nc2nc(N)c(-c3nc(-c4cc(NC(=O)OC(C)(C)C)ccc4Cl)no3)s2)cc(OC)c1OC` [B(12), (3-{5-[4-Amino-2-(3,4,5-trimethoxy-phenylamino)-thiazol-5-yl]-[1,2,4]oxadiazoyl}-4-chloro-phenyl)-carbamic acid tert-butyl ester] gave an inhibition at 1 µM [1] of 52%, an IC50 [2] of 15 nM and an IC50 [3] of 3.6 µM. It also gave a Ki [4] of 1.6 nM and an inhibition at 1 µM [5] of 29%.
In the case of `COc1cc(Nc2nc(N)c(-c3nc(-c4cccc(NC(=O)c5cnc6ccccc6c5)c4)cs3)s2)cc(OC)c1OC` [D(60), Quinoline-3-carboxylic acid {3-[4′-amino-2′-(3,4,5-trimethoxy-phenylamino)-[2,5′]bithiazolyl-4-yl]-phenyl}-amide], the inhibition at 1 µM [1] is reported as 10%, the IC50 [2] is reported as greater than 100 nM and the Ki [4] is reported as 1.4 nM. The inhibition at 1 µM [5] was 11%.
Molecule `COc1cc(Nc2nc(N)c(-c3nc(-c4cc(NC(=O)c5cccc(Cl)c5)ccc4F)no3)s2)cc(OC)c1OC` [D(73)] has an inhibition at 1 µM [1] of 56%, an IC50 [2] of 6 nM and an IC50 [3] of 4.45 µM. It also gave a Ki [4] of 1.2 nM and an inhibition at 1 µM [5] of 41%.
For `COc1cccc(C(=O)Nc2ccc(C)c(-c3noc(-c4sc(Nc5ccc(N6CCOCC6)nc5)nc4N)n3)c2)c1` [B(36), 3-[3-[(3-methoxybenzoyl)amino]-6-methyl-phenyl]-5-[2-[3-amino-6-(4-morpholinyl)-pyridinyl]-4-amino-5-thiazolyl]-1,2,4-oxadiazole], the inhibition at 1 µM [1] was 23%, the Ki [4] was 0.56 nM and the inhibition at 1 µM [5] was 72%.
Molecule `COc1cccc(C(=O)Nc2cc(-c3csc(-c4sc(NC(=O)NCCCN5CCCC5=O)nc4N)n3)c(F)cc2F)c1` [O(15), N-[5-(4′-Amino-2′-{3-[3-(2-oxo-pyrolidin-1-yl)-propyl]-ureido}-[2,5′]bithiazolyl-4-yl)-2,4-difluoro-phenyl]-3-methoxy-benzamide] has an inhibition at 1 µM [1] of 28%, a Ki [4] of 0.5 nM and an inhibition at 1 µM [5] of 2%.
In the case of `COc1cc(Nc2nc(N)c(-c3nc(-c4cccc(NC(=O)c5ncoc5-c5ccccc5)c4)cs3)s2)cc(OC)c1OC` [D(61), 5-Phenyl-oxazole-4-carboxylic acid {3-[4′-amino-2′-(3,4,5-trimethoxy-phenylamino)-[2,5′]bithiazolyl-4-yl]-phenyl}-amide], the inhibition at 1 µM [1] is reported as 9%, the IC50 [2] is reported as 165 nM and the IC50 [3] is reported as greater than 10 µM. For the same molecule, the inhibition at 1 µM [5] was 4%.
With `COc1cc(O)cc(-c2csc(-c3sc(Nc4cc(OC)c(OC)c(OC)c4)nc3N)n2)c1` [A(19), 3-[4′-Amino-2′-(3,4,5-trimethoxy-phenylamino)-[2,5′]bithiazolyl-4-yl]-5-methoxyphenol] the Ki ([1]; Table 2) was 390 nM, the melting point was 208 to 210 °C and the Ki ([6]; Table 2, spectrophotometric assay) was 4 nM. The inhibition at 20 µM [7] was 78.5%.
`CCn1nc(C)cc1C(=O)Nc1ccc(C)c(-c2noc(-c3sc(Nc4cccc(CN5CCCC5)c4)nc3N)n2)c1` [B(9)] gave an inhibition at 1 µM [1] of 78%, a Ki [4] of 0.36 nM and an inhibition at 1 µM [5] of 91%.
Work on `Cc1cccc(C(=O)Nc2cccc(-c3noc(-c4sc(NC(=O)NC(C)C)nc4N)n3)c2)c1` [F(13), N-(3-{5-[4-Amino-2-(3-isopropyl-ureido)-thiazol-5-yl]-[1,2,4]oxadiazol-3-yl}-phenyl)-3-methyl-benzamide] yielded an inhibition at 1 µM [1] of 25%, an IC50 [2] of 16 nM and a Ki [4] of 0.25 nM. The inhibition at 1 µM [5] was 29%.
In the case of `COc1cccc(C(=O)Nc2ccc(C)c(-c3noc(-c4sc(Nc5ccccc5)nc4N)n3)c2)c1` [B(35)], the inhibition at 1 µM [1] is reported as 39%, the Ki [4] is reported as 0.26 nM and the inhibition at 1 µM [5] is reported as 34%.
For `COc1cccc(C(=O)Nc2cc(-c3noc(-c4sc(NC(=O)NCCCN5CCCC5=O)nc4N)n3)c(F)cc2F)c1` [O(2)], the inhibition at 1 µM [1] was 28%, the Ki [4] was 0.33 nM and the inhibition at 1 µM [5] was 7%.
In the case of `CNC(=O)Nc1nc(N)c(-c2nc(-c3cccc(NC(=O)c4cccc(Cl)c4)c3)cs2)s1` [F(10), N-{3-[4′-Amino-2′-(3-methyl-ureido)-[2,5′]bithiazolyl-4-yl]-phenyl}-3-chloro-benzamide], the inhibition at 1 µM [1] is reported as 47%, the IC50 [2] is reported as 8.5 nM and the Ki [4] is reported as 0.14 nM. It also gave an inhibition at 1 µM [5] of 42%.
